# According to PMC3486420, “In Vitro and In Vivo Characterizations of Chiglitazar, a Newly Identified PPAR Pan-Agonist” (PPAR Research, 2012):
# Assays:
# [1] = test system: rats; design: method as in earlier work; conditions: same length of treatment (6 months) ref 44, 45; cited from earlier work
# [2] = biological target: T1, PPARδ (Homo sapiens, UniProt Q03181); test: PPARδ transactivation reporter gene assay in SMMC-7721 cells; type: cell-based
# T1 construct: expressed in transfected cells; host or cells: SMMC-7721 or U2OS
# T1 sequence (Q03181 1-441): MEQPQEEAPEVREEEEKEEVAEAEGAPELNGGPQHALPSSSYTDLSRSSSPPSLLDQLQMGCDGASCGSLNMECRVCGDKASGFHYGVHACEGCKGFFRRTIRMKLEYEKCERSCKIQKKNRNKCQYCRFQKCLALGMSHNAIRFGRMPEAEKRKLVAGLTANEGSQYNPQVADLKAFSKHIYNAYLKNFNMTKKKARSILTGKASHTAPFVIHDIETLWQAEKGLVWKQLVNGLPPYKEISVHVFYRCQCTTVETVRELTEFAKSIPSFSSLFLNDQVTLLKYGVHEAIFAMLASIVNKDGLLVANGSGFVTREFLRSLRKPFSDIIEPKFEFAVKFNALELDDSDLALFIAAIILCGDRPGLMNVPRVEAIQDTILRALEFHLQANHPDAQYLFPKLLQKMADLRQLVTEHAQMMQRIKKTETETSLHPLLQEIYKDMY
# T1 sequence (P19793 1-462 partner): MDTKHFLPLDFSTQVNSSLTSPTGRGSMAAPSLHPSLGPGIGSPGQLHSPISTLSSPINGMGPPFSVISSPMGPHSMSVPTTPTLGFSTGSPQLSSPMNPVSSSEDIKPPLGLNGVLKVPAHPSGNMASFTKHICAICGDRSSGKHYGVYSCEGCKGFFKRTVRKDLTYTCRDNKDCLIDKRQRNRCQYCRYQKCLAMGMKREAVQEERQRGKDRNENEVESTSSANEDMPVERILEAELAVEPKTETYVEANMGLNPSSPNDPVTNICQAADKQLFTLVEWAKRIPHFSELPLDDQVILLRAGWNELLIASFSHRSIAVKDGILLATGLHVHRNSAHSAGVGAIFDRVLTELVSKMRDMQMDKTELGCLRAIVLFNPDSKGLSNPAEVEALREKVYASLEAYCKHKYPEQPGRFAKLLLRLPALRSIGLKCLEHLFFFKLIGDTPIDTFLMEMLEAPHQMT
# [3] = biological target: T2, PPARα (Homo sapiens, UniProt Q07869); test: PPARα transactivation reporter gene assay in U2OS cells; type: cell-based
# T2 sequence (Q07869 1-468): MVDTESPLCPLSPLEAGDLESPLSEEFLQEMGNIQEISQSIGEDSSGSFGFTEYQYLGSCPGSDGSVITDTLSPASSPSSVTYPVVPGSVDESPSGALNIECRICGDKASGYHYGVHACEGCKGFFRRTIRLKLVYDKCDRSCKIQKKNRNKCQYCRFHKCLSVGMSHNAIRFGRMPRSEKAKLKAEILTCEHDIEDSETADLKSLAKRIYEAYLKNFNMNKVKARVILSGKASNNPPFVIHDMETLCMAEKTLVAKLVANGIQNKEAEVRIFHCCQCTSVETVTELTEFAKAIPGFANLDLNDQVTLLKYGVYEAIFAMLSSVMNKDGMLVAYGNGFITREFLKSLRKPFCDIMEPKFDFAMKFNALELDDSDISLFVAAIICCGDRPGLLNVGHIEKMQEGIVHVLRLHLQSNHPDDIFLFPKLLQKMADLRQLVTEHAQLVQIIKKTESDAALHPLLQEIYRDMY
# T2 sequence (P19793 1-462 partner): T1 sequence (P19793 1-462 partner)
# [4] = biological target: T1, PPARδ; test: PPARδ transactivation reporter gene assay in U2OS cells; type: cell-based
# [5] = test system: RAW267.4 cells; test: Gene expression by RT-PCR in RAW267.4 cells; type: cell-based, mouse; conditions: 48 h, 10 μM chiglitazar; for Expression of PPARα and/or PPARδ downstream gene SRA: 50 μM WY14643, 5 μM 2-Bro, compared with rosiglitazone 10 μM
# Text: (§1) cDNAs for human retinoid X receptor (hRXR), PPARα, PPARγ, and PPARδ were obtained by reverse transcriptase polymerase chain reaction (RT-PCR) from human liver or adipose tissues. Amplified cDNAs were cloned into pcDNA3.1 expression vector (Invitrogen, Carlsbad, CA, USA). The integrity and fidelity of all constructs made were verified by DNA sequencing. Luciferase reporter plasmids, ACOX promoter for PPARγ and pHD(X3)-luc for PPARα, were kind gifts of Drs. TM McIntyre (University of Utah, USA) and RA Rachubinski (University of Alberta, Canada), respectively. PPRE-luc for PPARδ was constructed based on the previous report by insertion of the annealed oligonucleotides having four copies of the CYP4A6 PPRE (4 × […]) into the upstream of the luciferase coding sequence in pGL3-promoter vector (Promega, Madison, WI, USA). pCMVβGal was purchased from Clontech (Palo Alto, CA, USA). The mouse 3T3-L1 preadipocyte cell line, skeletal muscle C2C12 cell line, and macrophage RAW267.4 cell line and the human osteosarcoma U2OS cell line were obtained from the American Type Culture Collection (ATCC, Rockville, MD, USA). The human hepatoma SMMC-7721 cell line was obtained from the Cell Culture Center of Chinese Academy of Medical Sciences (Beijing, China). Cell lines were cultured in medium of DMEM (3T3-L1, C2C12, and SMMC-7721), RPMI 1640 (RAW267.4), or McCoy's 5A (U2OS), containing 10% fetal bovine serum (FBS), 50 μg/mL streptomycin, and 50 units/mL penicillin at 37°C in a humidified incubator with 5% CO2.
# (§2) Total RNA was extracted from cells or tissues with an RNeasy minikit (Qiagen, Valencia, CA, USA). The first-strand cDNA was synthesized using the oligo(dT) primers, followed by using SuperScript II reverse transcriptase (Invitrogen) according to the manufacturer's instructions. The PCR amplifications were performed in 10 μL of reaction mixture volume containing 0.8 μL of cDNA, 10 mM Tris-HCl (pH 8.3), 50 mM KCl, 1.5 mM MgCl2, 0.1% Triton X-100, 0.2 mM deoxynucleotide triphosphates, 0.4 μM primers, and 0.25 U of Taq polymerase (TaKaRa Biotechnology Co., Ltd, China). Taq DNA polymerase was added to each tube after a treatment of 2 min at 94°C. This was followed by 22–30 cycles of denaturation (23 s at 94°C), annealing (20 s at 55°C), extension (30 s at 72°C), and a final extension step of 2 min. PCR products were analyzed by electrophoresis on a 1.5% agarose gel stained with ethidium bromide.
# (§3) Figure 1 In vitro regulation of gene expression by chiglitazar. (a) Endogenous expression of individual PPAR subtypes in cell lines. […]. The expression change of referred genes induced by different compounds was normalized against internal control (36B4 or GAPDH) and then compared with vehicle control treatment. The data shown are averaged from 3 independent experiments.
# [6] = biological target: T3, PPARγ (Homo sapiens, UniProt P37231); test: PPARγ transactivation reporter gene assay in U2OS cells; type: cell-based; conditions: 24 h treatment, luciferase reporter, hRXR cotransfected, ia: inactive at 10 μM
# T3 construct: expressed in transfected cells; host or cells: SMMC-7721 or U2OS
# T3 sequence (P37231 1-505): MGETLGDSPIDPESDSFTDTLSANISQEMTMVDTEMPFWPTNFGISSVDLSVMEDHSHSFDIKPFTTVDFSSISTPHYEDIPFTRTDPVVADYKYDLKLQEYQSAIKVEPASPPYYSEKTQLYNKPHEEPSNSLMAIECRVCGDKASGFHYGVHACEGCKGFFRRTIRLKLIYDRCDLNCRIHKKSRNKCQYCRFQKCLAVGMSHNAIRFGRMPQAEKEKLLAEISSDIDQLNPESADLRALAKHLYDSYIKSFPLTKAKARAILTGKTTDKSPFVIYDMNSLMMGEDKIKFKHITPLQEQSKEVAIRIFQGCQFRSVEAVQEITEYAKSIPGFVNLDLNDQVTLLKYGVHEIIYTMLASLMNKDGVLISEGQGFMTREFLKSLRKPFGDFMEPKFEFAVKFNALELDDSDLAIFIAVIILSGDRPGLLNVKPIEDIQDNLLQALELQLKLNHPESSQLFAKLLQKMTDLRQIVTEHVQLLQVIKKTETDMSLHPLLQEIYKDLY
# T3 sequence (P19793 1-462 partner): T1 sequence (P19793 1-462 partner)
# [7] = test system: SMMC-7721 cells; test: Gene expression by RT-PCR in SMMC-7721 cells; type: cell-based, human; conditions: 48 h, 10 μM rosiglitazone, 10 μM chiglitazar; for Expression of LDL receptor (LDLR): 50 μM WY14643, 5 μM 2-Bro
# Text: as §1, §2, §3
# [8] = test system: C2C12 cells; test: Gene expression by RT-PCR in C2C12 cells; type: cell-based, mouse; conditions: 48 h, 10 μM chiglitazar, 50 μM WY14643, 5 μM 2-Bro, compared with rosiglitazone 10 μM
# Text: as §1
# Total RNA was extracted from cells or tissues with an RNeasy minikit (Qiagen, Valencia, CA, USA). The first-strand cDNA was synthesized using the oligo(dT) primers, followed by using SuperScript II reverse transcriptase (Invitrogen) according to the manufacturer's instructions. […] PCR products were analyzed by electrophoresis on a 1.5% agarose gel stained with ethidium bromide. […]
# [9] = biological target: T2, PPARα; test: PPARα transactivation reporter gene assay in SMMC-7721 cells; type: cell-based
# [10] = biological target: T3, PPARγ; test: PPARγ transactivation reporter gene assay in SMMC-7721 cells; type: cell-based
# [11] = test system: 3T3-L1 cells; test: Gene expression by RT-PCR in 3T3-L1 cells; type: cell-based, mouse; conditions: 48 h, 10 μM rosiglitazone, 10 μM chiglitazar, vs vehicle
# Text: as §1, with “The human hepatoma SMMC-7721 cell line was obtained from the Cell Culture Center of Chinese Academy of Medical Sciences (Beijing, China). Cell lines were cultured in medium of DMEM (3T3-L1, C2C12, and SMMC-7721), RPMI 1640 (RAW267.4), or McCoy's 5A (U2OS), containing 10% fetal bovine serum (FBS), 50 μg/mL streptomycin, and 50 units/mL penicillin at 37°C in a humidified incubator with 5% CO2.” left out
# Total RNA was extracted from cells or tissues with an RNeasy minikit (Qiagen, Valencia, CA, USA). […] PCR products were analyzed by electrophoresis on a 1.5% agarose gel stained with ethidium bromide. […]
# [12] = test system: KKAy mice; test: Gene expression by RT-PCR in tissues of treated KKAy mice; type: in vivo, mouse; conditions: 12 days oral
# Protocol: as §2
# Male db/db mice (BKS.Cg-m +/+ LEPR^db) in 6-7 weeks were purchased from The Jackson Laboratory (Bar Harbor, ME, USA). Male KKAy and C57BL/6J mice in 8–10 weeks were obtained from the Institute of Animal Science, Chinese Academy of Medical Sciences and Peking Union Medical College (Beijing, China). Animals were randomly sorted into different treatment groups (8–10 per group). […]. Plasma glucose levels were examined at various time points by Accu-Chek Advantage II Glucose Strips (Roche Diagnostics, Basel, Switzerland) and measured by Accu-Chek Advantage (Roche Diagnostics). Animals were sacrificed 24 h after the last dosing and abdominal fat pad, liver, and skeletal muscle from KKAy mice and abdominal fat pad from db/db mice were taken for gene expression analysis.
# Figure 3 In vivo regulation of gene expression by chiglitazar. […]. Equal amount of total RNA from each mouse in the same group was mixed and subjected to RT-PCR analysis for the indicated genes. […]. Total RNA was isolated from individual animal tissues and subjected to the RT-PCR analysis independently for the indicated genes.
# [13] = 24 h treatment, luciferase reporter, hRXR cotransfected, ia: inactive at 10 μM
# [14] = chiglitazar 20 mg kg^−1, rosiglitazone 5 mg kg^−1
# [15] = max response compared with WY at 50 μM
structure (smiles),measurement,setting,value
"CCc1ccc(CCOc2ccc(CC3SC(=O)NC3=O)cc2)nc1 (centres unmarked) [Pio, pioglitazone]",Dose observed to induce heart weight increase,[1],4 mg/kg
"CCCCCCCCCCCCCCC(Br)C(=O)O (centres unmarked) [2-Bro, 2-bromohexadecanoic acid, reference compound]",EC50,[2],5.1 ± 0.9 µM
same,PPARδ % Max,"[2]; SMMC-7721 cells, max response compared with 2-Bro at 10 μM",100%
same,PPARα EC50,[3]; [13],ia
same,EC50,[4],9.2 ± 0.8 µM
same,PPARδ % Max,"[4]; U2OS cells, max response compared with 2-Bro at 10 μM",100%
same,Expression of PPARα and/or PPARδ downstream gene SRA,[5],more significantly upregulated
same,PPARγ EC50,[6],ia
same,Expression of LDL receptor (LDLR),[7],significantly upregulated
same,Expression of PPARα and/or PPARδ downstream genes CPT-1a and CPT-1b,[8],more significantly upregulated
same,PPARα EC50,[9]; [13],ia^2
same,EC50,[10],5.5 ± 1.7 µM
same,PPARγ % Max,"[10]; SMMC-7721 cells, max response compared with Ros at 1 μM",14%
"CN(CCOc1ccc(CC2SC(=O)NC2=O)cc1)c1ccccn1 (centres unmarked) [Ros, rosiglitazone, reference compound]",Expression of PPARγ downstream gene CD36,"[5]; 10 μM rosiglitazone, vs vehicle",upregulated
same,Expression of PPARγ downstream genes SREBP1 and adiponectin,[11],upregulated
same,"Expression of PPARγ downstream genes AOX, LIPC and HSL",[7]; vs vehicle,upregulated
same,Expression of LDL receptor (LDLR),[7],downregulated
same,Dose observed to induce heart weight increase,[1],5 mg/kg
same,"Expression of ACADL, HSL, GLUT4 and PPARγ in liver and skeletal muscle",[12]; [14],not affected
same,Expression of genes involved in PPARγ-mediated insulin sensitization in adipose tissue,[12]; [14],almost identically up-regulated
same,Expression of Adiponectin and CD36 in liver and skeletal muscle,[12]; rosiglitazone 5 mg kg^−1 vs chiglitazar 20 mg kg^−1,more upregulated
"Cc1cccc(Nc2cc(Cl)nc(SCC(=O)O)n2)c1C [WY, WY14643]",PPARα % Max,[3]; [15],100%
same,Expression of PPARα and/or PPARδ downstream gene SRA,[5],more significantly upregulated
same,Expression of LDL receptor (LDLR),[7],downregulated
same,Expression of PPARα and/or PPARδ downstream genes CPT-1a and CPT-1b,[8],more significantly upregulated
same,PPARα % Max,[9]; [15],100%
